Measurements from PubChem BioAssay (NCI).
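Following 48 hours of exposure in 96-well plates, responses at five concentrations were used to interpolate endpoints linearly. At the TGI there is no net growth.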

Key:
Test in all cases: inhibition of tumour cell growth, NCI panel, 48 h
[1] = tested on: 786-0 renal
[2] = tested on: A498 renal
[3] = tested on: A549 NSCLC
[4] = tested on: ACHN renal
[5] = tested on: CAKI-1 renal
[6] = tested on: CCRF-CEM leukemia
[7] = tested on: DMS 114 small cell lung
[8] = tested on: DMS 273 small cell lung
[9] = tested on: EKVX NSCLC
[10] = tested on: HCC-2998 colon
[11] = tested on: HCT-116 colon
[12] = tested on: HCT-15 colon
[13] = tested on: HL-60(TB) leukemia
[14] = tested on: HOP-62 NSCLC
[15] = tested on: HT29 colon
[16] = tested on: IGROV1 ovarian
[17] = tested on: K-562 leukemia
[18] = tested on: KM12 colon
[19] = tested on: M14 melanoma
[20] = tested on: M19-MEL melanoma
[21] = tested on: MALME-3M melanoma
[22] = tested on: MOLT-4 leukemia
[23] = tested on: NCI-H226 lung
[24] = tested on: NCI-H23 lung
[25] = tested on: NCI-H460 lung
[26] = tested on: NCI-H522 lung
[27] = tested on: OVCAR-3 ovarian
[28] = tested on: OVCAR-4 ovarian
[29] = tested on: OVCAR-5 ovarian
[30] = tested on: OVCAR-8 ovarian
[31] = tested on: RXF 393 renal
[32] = tested on: RXF-631 renal
[33] = tested on: SF-268 CNS
[34] = tested on: SF-295 CNS
[35] = tested on: SF-539 CNS
[36] = tested on: SK-MEL-2 melanoma
[37] = tested on: SK-MEL-28 melanoma
[38] = tested on: SK-OV-3 ovarian
[39] = tested on: SN12C renal
[40] = tested on: SNB-19 CNS
[41] = tested on: SNB-78 CNS
[42] = tested on: SR leukemia
[43] = tested on: SW-620 colon
[44] = tested on: TK-10 renal
[45] = tested on: U251 CNS
[46] = tested on: UACC-257 melanoma
[47] = tested on: UACC-62 melanoma
[48] = tested on: UO-31 renal
[49] = tested on: COLO 205 colon
[50] = tested on: DLD-1 colon
[51] = tested on: HOP-18 NSCLC
[52] = tested on: HOP-92 NSCLC
[53] = tested on: KM20L2 colon
[54] = tested on: LOX IMVI melanoma
[55] = tested on: LXFL 529 NSCLC
[56] = tested on: RPMI-8226 leukemia
[57] = tested on: SK-MEL-5 melanoma
[58] = tested on: SNB-75 CNS
[59] = tested on: XF 498 CNS

With `CCOc1nc(OCC)nc(-c2cccn2-c2ccccc2)n1` the TGI [1] was greater than 100 µM, the TGI [2] was greater than 100 µM and the TGI [3] was greater than 100 µM. The TGI [4] was greater than 100 µM, the TGI [5] was greater than 100 µM and the TGI [6] was greater than 100 µM. It also gave a TGI [7] of 86.8 µM, a TGI [8] greater than 100 µM and a TGI [9] greater than 100 µM. The TGI [10] was greater than 100 µM, the TGI [11] was greater than 100 µM and the TGI [12] was greater than 100 µM. For the same compound, the TGI [13] was 82.5 µM, the TGI [14] was greater than 100 µM and the TGI [15] was greater than 100 µM. The TGI [16] was 89.3 µM, the TGI [17] was greater than 100 µM and the TGI [18] was greater than 100 µM. For the same compound, the TGI [19] was greater than 100 µM, the TGI [20] was greater than 100 µM and the TGI [21] was 60.6 µM. For the same compound, the TGI [22] was 57.4 µM, the TGI [23] was greater than 100 µM and the TGI [24] was greater than 100 µM. For the same compound, the TGI [25] was greater than 100 µM, the TGI [26] was greater than 100 µM and the TGI [27] was 69.3 µM. For the same compound, the TGI [28] was greater than 100 µM, the TGI [29] was greater than 100 µM and the TGI [30] was greater than 100 µM. The TGI [31] was greater than 100 µM, the TGI [32] was greater than 100 µM and the TGI [33] was greater than 100 µM. The TGI [34] was greater than 100 µM, the TGI [35] was greater than 100 µM and the TGI [36] was 97.1 µM. It also gave a TGI [37] greater than 100 µM, a TGI [38] of 75 µM and a TGI [39] greater than 100 µM. For the same compound, the TGI [40] was greater than 100 µM, the TGI [41] was greater than 100 µM and the TGI [42] was 99.7 µM. The TGI [43] was greater than 100 µM, the TGI [44] was 89.2 µM and the TGI [45] was 48.6 µM. It also gave a TGI [46] greater than 100 µM, a TGI [47] greater than 100 µM and a TGI [48] of 67.9 µM.
In the case of `CN(C)CC1CCC(=C2CCCC2)C1=O` (centres undefined), the TGI [1] is reported as 19.7 µM, the TGI [2] is reported as 35.4 µM and the TGI [3] is reported as 39.8 µM. For the same compound, the TGI [4] was 21.4 µM, the TGI [5] was greater than 100 µM and the TGI [6] was 9.54 µM. The TGI [49] was 33.4 µM, the TGI [50] was 7.02 µM and the TGI [7] was 25 µM. It also gave a TGI [8] of 34.8 µM, a TGI [9] of 34.7 µM and a TGI [10] of 32.5 µM. It also gave a TGI [11] of 29.3 µM, a TGI [12] of 15.9 µM and a TGI [13] of 15.4 µM. For the same compound, the TGI [51] was 31.2 µM, the TGI [14] was 19.1 µM and the TGI [52] was 20.1 µM. The TGI [15] was 32.6 µM, the TGI [16] was 34.4 µM and the TGI [17] was 8.76 µM. It also gave a TGI [18] of 25.6 µM, a TGI [53] of 36.3 µM and a TGI [54] of 31.8 µM. The TGI [55] was 12.6 µM, the TGI [19] was 23.3 µM and the TGI [20] was 32.9 µM. The TGI [21] was 11 µM, the TGI [22] was greater than 20.7 µM and the TGI [23] was 32.2 µM. For the same compound, the TGI [24] was 36.3 µM, the TGI [25] was 45.8 µM and the TGI [26] was 3.39 µM. It also gave a TGI [27] of 26.3 µM, a TGI [28] of 31 µM and a TGI [29] of 30.9 µM. The TGI [30] was 39.1 µM, the TGI [56] was 4.81 µM and the TGI [31] was 27.9 µM. The TGI [33] was 26.4 µM, the TGI [34] was greater than 100 µM and the TGI [35] was 40 µM. The TGI [36] was 33.5 µM, the TGI [37] was 27.4 µM and the TGI [57] was 32 µM. For the same compound, the TGI [38] was greater than 100 µM, the TGI [39] was 24.9 µM and the TGI [40] was greater than 100 µM. The TGI [58] was 30.7 µM, the TGI [41] was 34.4 µM and the TGI [42] was 21.1 µM. It also gave a TGI [43] greater than 20.9 µM, a TGI [44] of 25.2 µM and a TGI [46] of 31.8 µM. For the same compound, the TGI [47] was 31.4 µM, the TGI [48] was 32.3 µM and the TGI [59] was 12.4 µM.
In the case of `C/C(CCn1[nH]c(=O)ccc1=O)=N\N=C(N)N`, the TGI [1] is reported as greater than 100 µM, the TGI [2] is reported as greater than 100 µM and the TGI [3] is reported as greater than 100 µM. For the same compound, the TGI [4] was greater than 100 µM, the TGI [5] was greater than 100 µM and the TGI [6] was greater than 100 µM. The TGI [50] was greater than 100 µM, the TGI [7] was greater than 100 µM and the TGI [8] was greater than 100 µM. For the same compound, the TGI [9] was greater than 100 µM, the TGI [10] was greater than 100 µM and the TGI [11] was greater than 100 µM. The TGI [12] was greater than 100 µM, the TGI [13] was greater than 100 µM and the TGI [51] was greater than 100 µM. For the same compound, the TGI [14] was greater than 100 µM, the TGI [52] was greater than 100 µM and the TGI [15] was greater than 100 µM. For the same compound, the TGI [16] was greater than 100 µM, the TGI [17] was greater than 100 µM and the TGI [18] was greater than 100 µM. The TGI [53] was greater than 100 µM, the TGI [54] was greater than 100 µM and the TGI [55] was greater than 100 µM. The TGI [19] was greater than 100 µM, the TGI [20] was greater than 100 µM and the TGI [21] was greater than 100 µM. For the same compound, the TGI [22] was greater than 100 µM, the TGI [23] was greater than 100 µM and the TGI [24] was greater than 100 µM. The TGI [25] was greater than 100 µM, the TGI [27] was greater than 100 µM and the TGI [28] was greater than 100 µM. It also gave a TGI [29] greater than 100 µM, a TGI [30] greater than 100 µM and a TGI [56] greater than 100 µM. For the same compound, the TGI [31] was greater than 100 µM, the TGI [33] was greater than 100 µM and the TGI [34] was greater than 100 µM. The TGI [35] was greater than 100 µM, the TGI [36] was greater than 100 µM and the TGI [37] was greater than 100 µM. It also gave a TGI [57] greater than 100 µM, a TGI [39] greater than 100 µM and a TGI [40] greater than 100 µM. For the same compound, the TGI [58] was greater than 100 µM, the TGI [41] was greater than 100 µM and the TGI [42] was greater than 100 µM. For the same compound, the TGI [43] was greater than 100 µM, the TGI [44] was greater than 100 µM and the TGI [46] was greater than 100 µM. For the same compound, the TGI [47] was greater than 100 µM, the TGI [48] was greater than 100 µM and the TGI [59] was greater than 100 µM.
